{
  "source": "patent US20210186960A1",
  "about": "“MODULATORS OF INDOLEAMINE 2,3-DIOXYGENASE” (GLAXOSMITHKLINE INTELLECTUAL PROPERTY DEVELOPMENT LIMITED, priority 2017, published 2021)",
  "key": {"[1]": {"tested_on": "human peripheral blood mononuclear cells (PBMC)", "assay": "PBMC cytotoxicity assay (CellTiter-Glo)", "type": "cell-based", "settings": "pCC50, CellTiter-Glo, stimulated human PBMC, 2 days", "protocol": "Compounds of the present invention were tested via high-throughput cellular assays utilizing detection of kynurenine via mass spectrometry and cytotoxicity as end-points. For the mass spectrometry and cytotoxicity assays, human peripheral blood mononuclear cells (PBMC) (PB003F; AllCells®, Alameda, Calif.) were stimulated with human interferon-γ (IFN-γ) (Sigma-Aldrich Corporation, St. Louis, Mo.) and lipopolysaccharide from Salmonella minnesota (LPS) (Invivogen, San Diego, Calif.) to induce the expression of indoleamine 2, 3-dioxygenase (IDO1). Compounds with IDO1 inhibitory properties decreased the amount of kynurenine produced by the cells via the tryptophan catabolic pathway. Cellular toxicity due to the effect of compound treatment was measured using CellTiter-Glo® reagent (CTG) (Promega Corporation, Madison, Wis.), which is based on luminescent detection of ATP, an indicator of metabolically active cells.\nIn preparation for the assays, test compounds were serially diluted 3-fold in\nDMSO from a typical top concentration of 1 mM or 5 mM and plated at 0.5 μL in 384-well, polystyrene, clear bottom, tissue culture treated plates with lids (Greiner Bio-One, Kremsmünster, Austria) to generate 11-point dose response curves. Low control wells (0% kynurenine or 100% cytotoxicity) contained either 0.5 μL of DMSO in the presence of unstimulated (−IFN-γ/−LPS) PBMCs for the mass spectrometry assay or 0.5 μL of DMSO in the absence of cells for the cytotoxicity assay, and high control wells (100% kynurenine or 0% cytotoxicity) contained 0.5 μL of DMSO in the presence of stimulated (+IFN-γ/+LPS) PBMCs for both the mass spectrometry and cytotoxicity assays.\nFrozen stocks of PBMCs were washed and recovered in RPMI 1640 medium (Thermo Fisher Scientific, Inc., Waltham, Mass.) supplemented with 10% v/v heat-inactivated fetal bovine serum (FBS) (Thermo Fisher Scientific, Inc., Waltham, Mass.), and 1× penicillin-streptomycin antibiotic solution (Thermo Fisher Scientific, Inc., Waltham, Mass.). The cells were diluted to 1,000,000 cells/mL in the supplemented RPMI 1640 medium. 50 μL of either the cell suspension, for the mass spectrometry assay, or medium alone, for the cytotoxicity assay, were added to the low control wells, on the previously prepared 384-well compound plates, resulting in 50,000 cells/well or 0 cells/well respectively. IFN- y and LPS were added to the remaining cell suspension at final concentrations of 100 ng/ml and 50 ng/ml respectively, and 50 μL of the stimulated cells were added to all remaining wells on the 384-well compound plates. The plates, with lids, were then placed in a 37 °C, 5% CO2 humidified incubator for 2 days.\nFollowing incubation, the 384-well plates were removed from the incubator and allowed to equilibrate to room temperature for 30 minutes. For the cytotoxicity assay, CellTiter-Glo® was prepared according to the manufacturer's instructions, and 40 μL were added to each plate well. After a twenty minute incubation at room temperature, luminescence was read on an EnVision® Multilabel Reader (Perkin Elmer Inc., Waltham, Mass.). For the mass spectrometry assay, 10 μL of supernatant from each well of the compound-treated plates were added to 40 μL of acetonitrile, containing 10 μM of an internal standard for normalization, in 384-well, polypropylene, V-bottom plates (Greiner Bio-One, Kremsmunster, Austria) to extract the organic analytes. Following centrifugation at 2000 rpm for 10 minutes, 10 μL from each well of the acetonitrile extraction plates were added to 90 μL of sterile, distilled H2O in 384-well, polypropylene, V-bottom plates for analysis of kynurenine and the internal standard on the RapidFire 300 (Agilent Technologies, Santa Clara, Calif.) and 4000 QTRAP MS (SCIEX, Framingham, Mass.). MS data were integrated using Agilent Technologies' RapidFire Integrator software, and data were normalized for analysis as a ratio of kynurenine to the internal standard. […]"}, "[2]": {"assay": "Plasma PK and tissue distribution after oral dosing of prodrug EXAMPLE 7 (5 mg/kg)", "type": "in vivo", "settings": "PO 5 mg/kg EXAMPLE 7 (prodrug), analyte as labelled", "protocol": "Tissue Distribution of drug intermediate C4 from oral dosing of C4 and of intermediate C4 from oral dosing of example 7 in rats\n• Wistar Han rat, 185-197 g, male, N=8, purchased from Beijing Vital River Co. LTD. Qualification No.: SCXK(J) 2016-0011 11400700240027. Fasted overnight and fed 4 hr post dose. PO: 5 mg/kg (10 mL/kg) via oral gavage(N=8). Sampling at 1, 4, 8 and 24 hr , 4 time points, terminal bleeding for plasma, liver, lymph nodes and spleen collected at each time point"}, "[3]": {"settings": "male Wistar Han rat, 1 hr, 5 mg/kg"}, "[4]": {"settings": "male Wistar Han rat, 4 hr, 5 mg/kg"}},
  "note": "Values joined by “and” are separate entries in the source; they are usually repeats but may differ in a detail not shown here. Identical values can stand only once. Like-named read-outs stand apart in the source and are kept apart here.",
  "data": [
    {"smiles": "CC(C)CN(c1ccc([C@H](C)CC(=O)O)cc1Nc1cnc(Cl)cn1)C1CCOCC1", "note": "[intermediate C4]", "values": [
      {"measurement": "PBMC TOX PXC50", "setting": "[1]", "value": "<5"},
      {"measurement": "Lymph node to plasma ratio individual", "setting": "[2]; [3]", "value": 2.99},
      {"measurement": "Spleen to plasma ratio individual", "setting": "[2]; [3]", "value": 0.677},
      {"measurement": "lymph node Concentration individual", "setting": "[2]; [3]", "value": 685, "unit": "ng/g"},
      {"measurement": "plasma Concentration individual", "setting": "[2]; [3]", "value": 229, "unit": "ng/mL"},
      {"measurement": "spleen Concentration individual", "setting": "[2]; [3]", "value": 155, "unit": "ng/g"},
      {"measurement": "Lymph node to plasma ratio individual", "setting": "[2]; [4]", "value": 2.15},
      {"measurement": "Spleen to plasma ratio individual", "setting": "[2]; [4]", "value": 0.260},
      {"measurement": "lymph node Concentration individual", "setting": "[2]; [4]", "value": 63.1, "unit": "ng/g"},
      {"measurement": "spleen Concentration individual", "setting": "[2]; [4]", "value": "23.1 ng/g and 7.65 ng/g"},
      {"measurement": "spleen Concentration Mean", "setting": "[2]; male Wistar Han rat, 8 hr", "value": "BQL"},
      {"measurement": "spleen Concentration individual", "setting": "[2]; male Wistar Han rat, 8 hr", "value": "BQL"},
      {"measurement": "lymph node Concentration individual", "setting": "[2]; male Wistar Han rat, 8 hr, 5 mg/kg", "value": "16.3 ng/g and 6.17 ng/g"},
      {"measurement": "liver Concentration Mean", "setting": "[2]; male Wistar Han rat, 24 hr", "value": "BQL"},
      {"measurement": "liver Concentration individual", "setting": "[2]; male Wistar Han rat, 24 hr", "value": "BQL"},
      {"measurement": "lymph node Concentration Mean", "setting": "[2]; male Wistar Han rat, 24 hr", "value": "BQL"},
      {"measurement": "lymph node Concentration individual", "setting": "[2]; male Wistar Han rat, 24 hr", "value": "BQL"},
      {"measurement": "plasma Concentration Mean", "setting": "[2]; male Wistar Han rat, 24 hr", "value": "BQL"},
      {"measurement": "plasma Concentration individual", "setting": "[2]; male Wistar Han rat, 24 hr", "value": "BQL"},
      {"measurement": "spleen Concentration Mean", "setting": "[2]; male Wistar Han rat, 24 hr", "value": "BQL"},
      {"measurement": "spleen Concentration individual", "setting": "[2]; male Wistar Han rat, 24 hr", "value": "BQL"},
      {"measurement": "AUC(0-t)", "setting": "[2]; lymph node, male Wistar Han rat, read-out: AUClast (lymph node)", "value": 1890, "unit": "ng·h/mL"},
      {"measurement": "concentration at 1 h", "setting": "[2]; male, Wistar Han, rat, lymph node, po, 5 mg/kg, 1 hr, read-out: lymph node Concentration Mean", "value": 807, "unit": "ng/g"},
      {"measurement": "concentration at 1 h", "setting": "[2]; male, Wistar Han, rat, lymph node, po, 5 mg/kg, 1 hr, read-out: lymph node Concentration individual", "value": 928, "unit": "ng/g"},
      {"measurement": "concentration at 4 h", "setting": "[2]; male, Wistar Han, rat, lymph node, po, 5 mg/kg, 4 hr, read-out: lymph node Concentration Mean", "value": 73.8, "unit": "ng/g"},
      {"measurement": "concentration at 4 h", "setting": "[2]; male, Wistar Han, rat, lymph node, po, 5 mg/kg, 4 hr, read-out: lymph node Concentration individual", "value": 84.4, "unit": "ng/g"},
      {"measurement": "concentration at 8 h", "setting": "[2]; male, Wistar Han, rat, lymph node, po, 5 mg/kg, 8 hr", "value": 11.2, "unit": "ng/g"},
      {"measurement": "Kp at 1 h", "setting": "[2]; male, Wistar Han, rat, lymph node/plasma, po, 5 mg/kg, 1 hr, read-out: Lymph node to plasma ratio Mean", "value": 3.86},
      {"measurement": "Kp at 1 h", "setting": "[2]; male, Wistar Han, rat, lymph node/plasma, po, 5 mg/kg, 1 hr, read-out: Lymph node to plasma ratio individual", "value": 4.73},
      {"measurement": "Kp at 4 h", "setting": "[2]; male, Wistar Han, rat, lymph node/plasma, po, 5 mg/kg, 4 hr, read-out: Lymph node to plasma ratio Mean", "value": 1.66},
      {"measurement": "Kp at 4 h", "setting": "[2]; male, Wistar Han, rat, lymph node/plasma, po, 5 mg/kg, 4 hr, read-out: Lymph node to plasma ratio individual", "value": 1.16},
      {"measurement": "Kp at 8 h", "setting": "[2]; male, Wistar Han, rat, lymph node/plasma, po, 5 mg/kg, 8 hr, read-out: Lymph node to plasma ratio Mean", "value": 0.994},
      {"measurement": "Kp at 8 h", "setting": "[2]; male, Wistar Han, rat, lymph node/plasma, po, 5 mg/kg, 8 hr, read-out: Lymph node to plasma ratio individual", "value": 0.994},
      {"measurement": "Kp", "setting": "[2]; male, Wistar Han, rat, lymph node/plasma, po, 5 mg/kg, read-out: AUClimphnode/AUCplasma", "value": 2.99},
      {"measurement": "concentration at 1 h", "setting": "[2]; male, Wistar Han, rat, plasma, po, 5 mg/kg, 1 hr, read-out: plasma Concentration Mean", "value": 213, "unit": "ng/mL"},
      {"measurement": "concentration at 1 h", "setting": "[2]; male, Wistar Han, rat, plasma, po, 5 mg/kg, 1 hr, read-out: plasma Concentration individual", "value": 196, "unit": "ng/mL"},
      {"measurement": "concentration at 1 h", "setting": "[2]; male, Wistar Han, rat, spleen, po, 5 mg/kg, 1 hr, read-out: spleen Concentration Mean", "value": 165, "unit": "ng/g"},
      {"measurement": "concentration at 1 h", "setting": "[2]; male, Wistar Han, rat, spleen, po, 5 mg/kg, 1 hr, read-out: spleen Concentration individual", "value": 175, "unit": "ng/g"},
      {"measurement": "concentration at 4 h", "setting": "[2]; male, Wistar Han, rat, spleen, po, 5 mg/kg, 4 hr, read-out: spleen Concentration Mean", "value": 15.4, "unit": "ng/g"},
      {"measurement": "Kp at 1 h", "setting": "[2]; male, Wistar Han, rat, spleen/plasma, po, 5 mg/kg, 1 hr, read-out: Spleen to plasma ratio Mean", "value": 0.785},
      {"measurement": "Kp at 1 h", "setting": "[2]; male, Wistar Han, rat, spleen/plasma, po, 5 mg/kg, 1 hr, read-out: Spleen to plasma ratio individual", "value": 0.893},
      {"measurement": "Kp at 4 h", "setting": "[2]; male, Wistar Han, rat, spleen/plasma, po, 5 mg/kg, 4 hr, read-out: Spleen to plasma ratio Mean", "value": 0.289},
      {"measurement": "Kp at 4 h", "setting": "[2]; male, Wistar Han, rat, spleen/plasma, po, 5 mg/kg, 4 hr, read-out: Spleen to plasma ratio individual", "value": 0.319},
      {"measurement": "Kp", "setting": "[2]; male, Wistar Han, rat, spleen/plasma, po, 5 mg/kg, read-out: AUCspleen/AUCplasma", "value": 0.558},
      {"measurement": "AUC(0-t)", "setting": "[2]; spleen, male Wistar Han rat, read-out: AUClast (spleen)", "value": 353, "unit": "ng·h/mL"}
    ]}
  ]
}
